Results on four molecules are retold here after patent US6423325B1, “Skin care composition” (Conopco, Inc., priority 1999, dated 2002).

The test system of the experiment is procollagen-I synthesis in human dermal fibroblasts. Briefly: Dot blot assay for procollagen-I protein in dermal fibroblast conditioned medium. It is filed as cell-based. Particulars: 24 hours, primary human foreskin fibroblasts, relative to vehicle treated control value of 100. How it is done:
Primary human foreskin fibroblasts at passage 2 (P2) were seeded into 12-well plates at 10000 cells/cm^2 and maintained for 24 hours in an atmosphere of 5% carbon dioxide and 4% oxygen in Dulbeccos Modified Eagles Medium (DMEM) supplemented with 10% foetal calf serum. After this time the cells were washed with serum free DMEM and then incubated in fresh serum free DMEM for a further 60 hours. The fibroblast monolayers were then washed again with serum free DMEM. Test reagents and vehicle controls were added to the cells in triplicate in a final volume of 0.4 ml/well fresh serum free DMEM and incubated for a further 24 hours.
This fibroblast conditioned medium was either analysed immediately or snap frozen in liquid nitrogen and stored at −70° C. for future analysis. The cells were then counted and data from the dot-blot analysis subsequently standardised to cell number.
Samples of conditioned medium from dermal fibroblasts treated with vehicle (as a control) or test reagents were supplemented with 20 mM dithiothreitol (1:10 dilution of 200 mM stock solution) and 0.1% sodium dodecylsulphate (1:100 dilution of 10% stock solution), mixed well and then incubated at 75° C. for 2 minutes.
A standard for the assay was generated by serial dilution of neat fibroblast conditioned medium from fibroblasts seeded at 10000 cells/cm^2 in a 175 cm^2 flask and maintained in serum free DMEM as described above. Assay samples were subsequently applied in triplicate to a prewetted sheet of Immobilon-P transfer membrane using the 96-well Bio-Dot Apparatus from Bio-Rad as described in the manufacturers guidelines. Approximately 200 μl of medium was applied per well. The medium was allowed to filter through the membrane under gravity (30 minutes) after which the membrane was washed twice with PBS (200 μl). These PBS washes were allowed to filter through the membrane under gravity (2×15 minutes).
The Bio-Dot apparatus was then attached to a vacuum manifold and a third and final PBS wash carried out under suction. The apparatus was disassembled, the membrane removed and quickly cut as required before being placed in blocking buffer overnight at 4° C. Membranes prepared for procollagen-I analysis were blocked with 5% (w/v) non-fat dried milk powder/0.05% Tween 20 in PBS. The following day, the membranes were probed with 1:10000 dilution of primary antibodies to human procollagen-I (MAB1912; rat monoclonal; Chemicon Int. Inc., Temecula, Calif.) for 2 hours at room temperature. The membranes were subsequently washed with TBS/0.05% Tween 20 (3×5 minutes) and then incubated with 1:1000 dilution of ^125I-conjugated anti-rat fragments (Amersham) as required for 1 hour at room temperature. Following this the Immobilon strips were again washed with TBS/Tween 20 (3×5 minutes) before being allowed to dry in air at room temperature.
The dried membranes were wrapped in cellophane and exposed to a Molecular Dynamics storage phosphor screen for 16-18 hours. […] Dot intensity was assessed by computer-assisted image analysis using the quantification tools in ImageQuant™, standardised to cell number and the effects of various test reagents procollagen-I synthesis were determined relative to a vehicle treated control value of 100 arbitrary units.
In order to normalise the results the effects of the test substances were determined relative to a vehicle treated control value of 100 arbitrary units. […]

Where “and” joins values, the source holds several entries; their conditions need not be identical. Equal values may be shown once.

In the case of `CC/C=C\C/C=C\C/C=C\C/C=C\C/C=C\C/C=C\CCC(=O)O` [DHA, Docosahexaenoic acid], the Procollagen-I (10 μM) stood at 105.1 arbitrary units. As to `CCCCCCCCCCC/C=C\CCCCC(=O)O` [PA, Petroselinic acid], under “1 μM”, the Procollagen-I turned out to be 87.6 arbitrary units. As for `CCCCC/C=C\C/C=C\CCCCCCCC(=O)O` [linoleic acid], the Procollagen-I runs as follows: (1 μM) 99.3 arbitrary units; (10 μM) 111.8 arbitrary units and 110.3 arbitrary units. Turning to `CCCCCCCC/C=C\CCCCCCCC(=O)O` [oleic acid, reference compound], the Procollagen-I (10 μM) amounted to 102.6 arbitrary units.
